Reference: ChEMBL document CHEMBL1156658, “Antifungal cyclic depsipeptide, eujavanicin A, isolated from Eupenicillium javanicum” (2008)
Active and inactive are the calls of the source. The calls are words filed in the database; no cut-off is given here. Non-standard residues stand in square brackets, D forms with d. Residues, ends and D or L forms follow the SMILES beside them. NMeI = CC[C@H](C)[C@H](NC)C(=O)O; NMeD = CN[C@@H](CC(=O)O)C(=O)O; NMeV = CN[C@H](C(=O)O)C(C)C; Pip = O=C(O)[C@@H]1CCCCN1; Lac = C[C@H](O)C(=O)O

Legend:
Aspergillus niger [1] = assay: Antifungal activity against Aspergillus niger; type: functional, organism-based
Escherichia coli [2] = assay: Antibacterial activity against Escherichia coli NBRC14237 at 100 ug/disk by paper disk method; type: functional, organism-based
Salmonella enteritidis [3] = assay: Antibacterial activity against Salmonella enteritidis NBRC3313 at 100 ug/disk by paper disk method; type: functional, organism-based; details: Salmonella enterica subsp. enterica serovar Enteritidis
Aspergillus fumigatus [4] = assay: Antifungal activity against Aspergillus fumigatus; type: functional, organism-based
Bacillus subtilis [5] = assay: Antibacterial activity against Bacillus subtilis NBRC3134 at 100 ug/disk by paper disk method; type: functional, organism-based
Staphylococcus aureus [6] = assay: Antibacterial activity against Staphylococcus aureus […] at 100 ug/disk by paper disk method; type: functional, organism-based
Cryptococcus neoformans [7] = assay: Antimicrobial activity against Cryptococcus neoformans; type: functional, organism-based
Candida albicans [8] = assay: Antimicrobial activity against Candida albicans; type: functional, organism-based
Staphylococcus aureus [9] = assay: Antibacterial activity against Staphylococcus aureus […] assessed as zone of inhibition at 50 ug/disk by paper disk method; type: functional, organism-based
Bacillus subtilis [10] = assay: Antibacterial activity against Bacillus subtilis NBRC3134 assessed as zone of inhibition at 50 ug/disk by paper disk method; type: functional, organism-based
Aspergillus fumigatus [11] = assay: Antifungal activity against Aspergillus fumigatus assessed as zone of inhibition at 6.25 ug/disk by paper disk method; type: functional; details: read-out: IZ
Salmonella enteritidis [12] = assay: Antibacterial activity against Salmonella enteritidis NBRC3313 assessed as zone of inhibition at 50 ug/disk by paper disk method; type: functional, organism-based; details: Salmonella enterica subsp. enterica serovar Enteritidis
Escherichia coli [13] = assay: Antibacterial activity against Escherichia coli NBRC14237 assessed as zone of inhibition at 50 ug/disk by paper disk method; type: functional, organism-based
Candida albicans [14] = assay: Antimicrobial activity against Candida albicans at 50 ug/disk by paper disk method; type: functional, organism-based
Cryptococcus neoformans [15] = assay: Antimicrobial activity against Cryptococcus neoformans at 50 ug/disk by paper disk method; type: functional, organism-based
Aspergillus niger [16] = assay: Antifungal activity against Aspergillus niger at 50 ug/disk by paper disk method; type: functional, organism-based

SMILES	Activity (Aspergillus niger [1])	Activity (Escherichia coli [2])	Activity (Salmonella enteritidis [3])	Activity (Aspergillus fumigatus [4])	Activity (Bacillus subtilis [5])	Activity (Staphylococcus aureus [6])	Activity (Cryptococcus neoformans [7])	Activity (Candida albicans [8])	Activity (Staphylococcus aureus [9])	Activity (Bacillus subtilis [10])	zone of inhibition at 6.25 µg/disc (Aspergillus fumigatus [11]) [mm]	Activity (Salmonella enteritidis [12])	Activity (Escherichia coli [13])	Activity (Candida albicans [14])	Activity (Cryptococcus neoformans [15])	Activity (Aspergillus niger [16])
CC[C@H](C)[C@H]1C(=O)N[C@@H](CC(=O)OC)C(=O)N(C)[C@@H](C(C)C)C(=O)N[C@@H](CC(C)C)C(=O)O[C@@H](C)C(=O)N2CCCC[C@H]2C(=O)N(C)[C@@H](C(C)C)C(=O)N[C@@H](C(C)C)C(=O)N(C)[C@@H](CC(=O)OC)C(=O)N(C)[C@@H]([C@@H](C)CC)C(=O)N1C (cyclo(D(OMe)[NMeV]L[Lac][Pip][NMeV]V[NMeD](OMe)[NMeI][NMeI]))	inactive	inactive	inactive	inactive	inactive	inactive	inactive	inactive	–	–	–	–	–	–	–	–
CC[C@H](C)[C@H]1C(=O)N[C@@H](CC(=O)O)C(=O)N(C)[C@@H](C(C)C)C(=O)N[C@@H](CC(C)C)C(=O)O[C@@H](C)C(=O)N2CCCC[C@H]2C(=O)N(C)[C@@H](C(C)C)C(=O)N[C@@H](C(C)C)C(=O)N(C)[C@@H](CC(=O)O)C(=O)N(C)[C@@H]([C@@H](C)CC)C(=O)N1C [EUJAVANICIN A] (cyclo(D[NMeV]L[Lac][Pip][NMeV]V[NMeD][NMeI][NMeI]))	–	inactive	inactive	–	inactive	inactive	–	–	inactive	inactive	23	inactive	inactive	inactive	inactive	inactive
